# According to US5550128A, “Enantiomers of gamma methylene 10-deaza aminopterin and process for preparing the same” (priority 1994, dated 1996):
# Legend:
# [1] = test system: adriamycin resistant MCF-7 human breast cancer cells (MCF-7/ADR-RBS); test: Human Disease Oriented in vitro Antitumor Screen, adriamycin resistant cells; assay type: cell-based; settings: MCF7, read-out: Gl50 (the source's name)
# From the text: (§1) It is also active against the adriamycin resistant MCF-7 human breast cancer cells (Gl50 -=74×10^-9).
# (§2) Human Disease Oriented in vitro Antitumor Screen
# [2] = test system: LOX IM VI (melanoma); test: Human Disease Oriented in vitro Antitumor Screen; assay type: cell-based; settings: LOX IMVI, LOX MI VI (Table 5), read-out: Gl50 (the source's name)
# Method: (§3) Further, by analogy to methotrexate (rheumatrex) L-MDAM should be useful in the treatment of autoimmune diseases such as rheumatoid arthritis and inflammatory diseases such as asthma.
# (§4) A 48 h continuous drug exposure protocol was used combined with an SR13
# (§5) protein assay to estimate cell growth or viability.
# [3] = test system: HL-60 (TB) (leukemia); test: Human Disease Oriented in vitro Antitumor Screen; assay type: cell-based; settings: HL-60 TB (Table 5), read-out: Gl50 (the source's name)
# Method: as §3, §4, §5
# [4] = test system: SW-620 (colon cancer); test: Human Disease Oriented in vitro Antitumor Screen; assay type: cell-based; settings: SW-620 (Table 5), read-out: Gl50 (the source's name)
# Method: as §3, §4, §5
# [5] = test system: MOLT-4 (leukemia); test: Human Disease Oriented in vitro Antitumor Screen; assay type: cell-based; settings: MOLT-4 (Table 5), read-out: Gl50 (the source's name)
# Method: as §3, §4, §5
# [6] = test system: SF-295; test: Human Disease Oriented in vitro Antitumor Screen; assay type: cell-based; settings: SF-295 (Table 5), read-out: Gl50 (the source's name)
# Method: as §3, §4, §5
# [7] = test system: SR (leukemia); test: Human Disease Oriented in vitro Antitumor Screen; assay type: cell-based; settings: SR (Table 5), read-out: Gl50 (the source's name)
# Method: as §3, §4, §5
# [8] = test system: ACHN (renal cancer); test: Human Disease Oriented in vitro Antitumor Screen; assay type: cell-based; settings: ACHN (Table 5), read-out: Gl50 (the source's name)
# Method: as §3, §4, §5
# [9] = test system: SF-539; test: Human Disease Oriented in vitro Antitumor Screen; assay type: cell-based; settings: SF-539 (Table 5), read-out: Gl50 (the source's name)
# Method: as §3, §4, §5
# [10] = test system: OVCAR-8 (ovarian cancer); test: Human Disease Oriented in vitro Antitumor Screen; assay type: cell-based; settings: OVCAR-8 (Table 5), read-out: Gl50 (the source's name)
# Method: as §3, §4, §5
# [11] = test system: CCRF-CEM (leukemia); test: Human Disease Oriented in vitro Antitumor Screen; assay type: cell-based; settings: CCRF-CEM (Table 5), read-out: Gl50 (the source's name)
# Method: as §3, §4, §5
# [12] = test system: HCT-116 (colon cancer); test: Human Disease Oriented in vitro Antitumor Screen; assay type: cell-based; settings: HCT-116 (Table 5), read-out: Gl50 (the source's name)
# Method: as §3, §4, §5
# [13] = test system: 786-O (renal cancer); test: Human Disease Oriented in vitro Antitumor Screen; assay type: cell-based; settings: 786-0, 786-O (Table 5), read-out: Gl50 (the source's name)
# Method: as §3, §4, §5
# [14] = test system: SF-268; test: Human Disease Oriented in vitro Antitumor Screen; assay type: cell-based; settings: SF-268 (Table 5), read-out: Gl50 (the source's name)
# Method: as §3, §4, §5
# [15] = test system: HT-29 (colon cancer); test: Human Disease Oriented in vitro Antitumor Screen; assay type: cell-based; settings: HT-29 (Table 5), read-out: Gl50 (the source's name)
# Method: as §3, §4, §5
# [16] = test system: IGROVI (ovarian cancer); test: Human Disease Oriented in vitro Antitumor Screen; assay type: cell-based; settings: IGROVI (Table 5), read-out: Gl50 (the source's name)
# From the text: as §1, §2
# [17] = test system: TK-10 (renal cancer); test: Human Disease Oriented in vitro Antitumor Screen; assay type: cell-based; settings: TK-10 (Table 5), read-out: Gl50 (the source's name)
# From the text: as §1, §2
# [18] = test system: M14 (melanoma); test: Human Disease Oriented in vitro Antitumor Screen; assay type: cell-based; settings: M14 (Table 5), read-out: Gl50 (the source's name)
# From the text: as §1, §2
# [19] = test system: ZIACC-62 (melanoma); test: Human Disease Oriented in vitro Antitumor Screen; assay type: cell-based; settings: ZIACC-62 (Table 5), read-out: Gl50 (the source's name)
# From the text: as §1, §2
# [20] = test system: U-251 (CNS cancer); test: Human Disease Oriented in vitro Antitumor Screen; assay type: cell-based; settings: U-251 (Table 5), read-out: Gl50 (the source's name)
# From the text: as §1, §2
# [21] = test system: RPMI-8226 (leukemia); test: Human Disease Oriented in vitro Antitumor Screen; assay type: cell-based; settings: RPMI-8226 (Table 5), read-out: Gl50 (the source's name)
# From the text: as §1, §2
# [22] = test system: NCI-H460 (non-small cell lung cancer); test: Human Disease Oriented in vitro Antitumor Screen; assay type: cell-based; settings: NCI-H460 (Table 5), read-out: Gl50 (the source's name)
# From the text: as §1, §2
# [23] = test system: SN-12C (renal cancer); test: Human Disease Oriented in vitro Antitumor Screen; assay type: cell-based; settings: SN12C, SN-12C (Table 5), read-out: Gl50 (the source's name)
# From the text: as §1, §2
# [24] = test system: HOP-62 (non-small cell lung cancer); test: Human Disease Oriented in vitro Antitumor Screen; assay type: cell-based; settings: HOP-62 (Table 5), read-out: Gl50 (the source's name)
# From the text: as §1, §2
# [25] = test system: MDA-MB-231/ATCC (breast cancer); test: Human Disease Oriented in vitro Antitumor Screen; assay type: cell-based; settings: MDA-MB-231/ATCC (Table 5), read-out: Gl50 (the source's name)
# From the text: as §1, §2
# [26] = test system: DU 145 (prostate cancer); test: Human Disease Oriented in vitro Antitumor Screen; assay type: cell-based; settings: DU 145 (Table 5), read-out: Gl50 (the source's name)
# From the text: as §1, §2
# [27] = test system: OVCAR-5 (ovarian cancer); test: Human Disease Oriented in vitro Antitumor Screen; assay type: cell-based; settings: OVCAR-5 (Table 5), read-out: Gl50 (the source's name)
# From the text: as §1, §2
# [28] = test system: MCF-7 (breast cancer); test: Human Disease Oriented in vitro Antitumor Screen; assay type: cell-based; settings: MCF7, MCF-7 (Table 5), read-out: Gl50 (the source's name)
# From the text: as §1, §2
# [29] = test system: MDA-N (breast cancer); test: Human Disease Oriented in vitro Antitumor Screen; assay type: cell-based; settings: MDA-N (Table 5), read-out: Gl50 (the source's name)
# From the text: as §1, §2
# [30] = test system: HCT-15 (colon cancer); test: Human Disease Oriented in vitro Antitumor Screen; assay type: cell-based; settings: HCT-15 (Table 5), read-out: Gl50 (the source's name)
# From the text: as §1, §2
# [31] = test system: human tumor cell lines in culture; test: Human Tumor Disease Oriented in vitro screen, panel as a whole; assay type: cell-based; settings: relative to methotrexate, or enantiomer comparison
# Method: as §3, §4, §5
# [32] = test system: transport of radiolabeled folinic acid to H35 hepatoma cells; test: Inhibition of transport of radiolabeled folinic acid to H35 hepatoma cells; assay type: cell-based
# Method: (§6) Independent, further evidences to the identity of L-MDAM as the biologically active enantiomer of the racemic mixture of D,L-MDAM (previously described as MDAM; Ref, U.S. Pat. No. 4,996,207) was obtained by the following data. […] The cytotoxicity of L-MDAM versus D,L-MDAM was also compared. […] The l50 value for growth inhibition (Gl50) was 39 nM for D,L-MDAM. […] Taken together, these unexpected and novel results establish that the biologically active compound present in the racemic mixture of MDAM is the L-enantiomer described in claim number 1.
# [33] = target: T1, Recombinant Human Dihydrofolate Reductase (Homo sapiens, UniProt P00374); test: Inhibition of recombinant human dihydrofolate reductase, spectrophotometric enzyme assay; assay type: biochemical
# T1 sequence (P00374 1-187): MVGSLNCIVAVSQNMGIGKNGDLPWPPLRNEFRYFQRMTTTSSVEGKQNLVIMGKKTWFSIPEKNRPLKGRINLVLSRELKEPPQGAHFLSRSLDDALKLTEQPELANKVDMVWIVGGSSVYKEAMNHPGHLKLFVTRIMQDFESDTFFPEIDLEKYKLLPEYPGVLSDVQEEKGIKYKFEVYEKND
# Method: Enzyme assay was performed spectrophotometrically in a solution containin
# 50 μM dihydrofolate, 80 μM NADPH, 0.05 M Tris HCl. 0.01 M
# 2mercaptoethanol and 0.001 M EDTA at pH 7.4 at 30°. The reaction
# Pure human recombinant enzyme was used.
# [34] = test system: H35 hepatoma cells; test: Growth inhibition of H35 hepatoma cells in culture; assay type: cell-based
# Method: as §6
compound,measurement,setting,value
"C=C(C[C@H](NC(=O)c1ccc(CCc2cnc3nc(N)nc(N)c3n2)cc1)C(=O)O)C(=O)O [L-MDAM, 4-amino-4-deoxy-10-deazapteroyl-γ-methylene-L-glutamic acid]",IC50,[1],74 nM
same,IC50,[2],< 10 nM
same,IC50,[3],< 10 nM
same,IC50,[4],< 10 nM
same,IC50,[5],< 10 nM
same,IC50,[6],< 10 nM
same,IC50,[7],< 10 nM
same,IC50,[8],< 10 nM
same,IC50,[9],< 10 nM
same,IC50,[10],< 10 nM
same,IC50,[11],< 10 nM
same,IC50,[12],< 10 nM
same,IC50,[13],< 10 nM
same,IC50,[14],< 10 nM
same,IC50,[15],< 10 nM
same,IC50,[16],< 10 nM
same,IC50,[17],< 10 nM
same,IC50,[18],< 10 nM
same,IC50,[19],< 10 nM
same,IC50,[20],< 10 nM
same,IC50,[21],< 10 nM
same,IC50,[22],< 10 nM
same,IC50,[23],< 10 nM
same,IC50,[24],< 10 nM
same,IC50,[25],< 10 nM
same,IC50,[26],< 10 nM
same,IC50,[27],< 10 nM
same,IC50,[28],< 10 nM
same,IC50,[29],< 10 nM
same,IC50,[30],< 10 nM
same,activity/potency in inhibiting growth of human tumor cell lines (in words),[31],"biologically active enantiomer of D,L-MDAM"
same,IC50,"[32]; H35 hepatoma cells, read-out: l50 value, inhibition of transport of radiolabeled folinic acid",2300 nM
same,"reduction in l50 value (transport) versus D,L-MDAM","[32]; L-MDAM versus D,L-MDAM",approximately one-half
same,IC50,"[33]; 50 μM dihydrofolate, 80 μM NADPH, pH 7.4, 30°",22 nM
same,IC50 Compound/IC50 MTX,[33]; ratio to MTX,1.29
same,DHFR inhibitory activity (comparison in words),"[33]; relative to MTX or D,L-MDAM","exactly twice as active as D,L-MDAM"
same,"cytotoxicity versus D,L-MDAM",[34]; H35 hepatoma cells,Dramatic and unexpected potentiation of activity
same,IC50,"[34]; H35 hepatoma cells in culture, identical conditions, read-out: l50 value for growth inhibition (Gl50)",8 nM
